# Measured values published in paper PMC7954794, “Protein context shapes the specificity of SH3 domain-mediated interactions in vivo” (Nature Communications, 2021).
# Tests used:
# Assay type in all cases: cell-based, Saccharomyces cerevisiae
# ABP1 = test: DHFR-PCA on solid medium, bait ABP1 (Fig. 1B); conditions: bait ABP1, label = prey; 2-4 replicates
# Excerpt: (§1) Supplement 41467_2021_21873_MOESM8_ESM.xlsx, sheet "Fig1B" | column: medsize; medrep; Ratio; Score
# BBC1 = test: DHFR-PCA on solid medium, bait BBC1 (Fig. 1B); conditions: bait BBC1, label = prey; 2-4 replicates
# Excerpt: as §1
# BEM1-1 = test: DHFR-PCA on solid medium, bait BEM1-1 (Fig. 1B); conditions: bait BEM1-1, label = prey; 2-8 replicates
# Excerpt: as §1
# BEM1-2 = test: DHFR-PCA on solid medium, bait BEM1-2 (Fig. 1B); conditions: bait BEM1-2, label = prey; 2-8 replicates
# Excerpt: as §1
# BOI1 = test: DHFR-PCA on solid medium, bait BOI1 (Fig. 1B); conditions: bait BOI1, label = prey
# Excerpt: as §1
# BOI2 = test: DHFR-PCA on solid medium, bait BOI2 (Fig. 1B); conditions: bait BOI2, label = prey; 3-8 replicates
# Excerpt: as §1
# BUD14 = test: DHFR-PCA on solid medium, bait BUD14 (Fig. 1B); conditions: bait BUD14, label = prey; 4 replicates
# Excerpt: as §1
# BZZ1-1 = test: DHFR-PCA on solid medium, bait BZZ1-1 (Fig. 1B); conditions: bait BZZ1-1, label = prey; 4 replicates
# Excerpt: Supplement 41467_2021_21873_MOESM8_ESM.xlsx, sheet "Fig1B" | column: medsize; medrep; Score
substance,measurement,setting,value
YAL005C,"medrep (log2 median colony size normalized to plate background, PCA score)",ABP1,5.43
same,"medrep (log2 median colony size normalized to plate background, PCA score)",BBC1,5.353
same,"medrep (log2 median colony size normalized to plate background, PCA score)",BEM1-1,4.321
same,"medrep (log2 median colony size normalized to plate background, PCA score)",BEM1-2,4.321
same,"medrep (log2 median colony size normalized to plate background, PCA score)",BOI1; 3-8 replicates,3.321
same,Ratio (SH3-deleted/WT medrep),"BOI1; only significant differences showed, PPIs completely lost have a ratio of 0.1 and the gained PPIs 2.5",1.412
same,"medrep (log2 median colony size normalized to plate background, PCA score)",BOI2,4.382
same,"medrep (log2 median colony size normalized to plate background, PCA score)",BUD14,4.297
same,"medrep (log2 median colony size normalized to plate background, PCA score)",BZZ1-1,4.381
